Measurements from the NIST ThermoML archive (doi:10.1021/acs.jced.7b00452).
Numbers after ± are expanded uncertainties.

Assay: mn = molality of the nth substance listed, in mol/kg
Settings: 101.3 kPa, Liquid; for speed of sound: Single path-length method; for mass density: Vibrating tube method

**Q.** Which results are given for CCN(CC)CCNC(=O)c1ccc(N)cc1.Cl [procainamide hydrochloride] + O?
**A.** speed of sound (298.15 K, m1 = 0.0292): 1501.6 ± 1 m/s; speed of sound (298.15 K, m1 = 0.0328): 1502.1 ± 1 m/s; speed of sound (298.15 K, m1 = 0.043): 1503.6 ± 1 m/s; speed of sound (298.15 K, m1 = 0.0551): 1505.4 ± 1 m/s; speed of sound (298.15 K, m1 = 0.0689): 1507.5 ± 1 m/s; speed of sound (298.15 K, m1 = 0.076): 1508.5 ± 1 m/s; speed of sound (298.15 K, m1 = 0.0804): 1509.1 ± 1 m/s; speed of sound (298.15 K, m1 = 0.0938): 1511.1 ± 1 m/s; speed of sound (298.15 K, m1 = 0.1119): 1513.8 ± 1 m/s; speed of sound (298.15 K, m1 = 0.1194): 1514.9 ± 1 m/s; speed of sound (298.15 K, m1 = 0.1306): 1516.6 ± 1 m/s; speed of sound (298.15 K, m1 = 0.1402): 1517.9 ± 1 m/s; speed of sound (298.15 K, m1 = 0.1601): 1520.9 ± 1 m/s; speed of sound (298.15 K, m1 = 0.1715): 1522.6 ± 1 m/s; mass density (298.15 K, m1 = 0.0292): 998.359 ± 0.1 kg/m3; mass density (298.15 K, m1 = 0.0328): 998.521 ± 0.1 kg/m3; mass density (298.15 K, m1 = 0.043): 998.975 ± 0.1 kg/m3; mass density (298.15 K, m1 = 0.0551): 999.51 ± 0.1 kg/m3; mass density (298.15 K, m1 = 0.0689): 1000.14 ± 0.1 kg/m3; mass density (298.15 K, m1 = 0.076): 1000.45 ± 0.1 kg/m3; mass density (298.15 K, m1 = 0.0804): 1000.66 ± 0.1 kg/m3; mass density (298.15 K, m1 = 0.0938): 1001.27 ± 0.1 kg/m3; mass density (298.15 K, m1 = 0.1119): 1002.05 ± 0.1 kg/m3; mass density (298.15 K, m1 = 0.1194): 1002.38 ± 0.1 kg/m3; mass density (298.15 K, m1 = 0.1306): 1002.87 ± 0.1 kg/m3; mass density (298.15 K, m1 = 0.1402): 1003.3 ± 0.11 kg/m3; mass density (298.15 K, m1 = 0.1601): 1004.18 ± 0.11 kg/m3; mass density (298.15 K, m1 = 0.1715): 1004.66 ± 0.11 kg/m3; speed of sound (308.15 K, m1 = 0.0292): 1524.2 ± 1 m/s; speed of sound (308.15 K, m1 = 0.0328): 1524.6 ± 1 m/s; speed of sound (308.15 K, m1 = 0.043): 1525.8 ± 1 m/s; speed of sound (308.15 K, m1 = 0.0551): 1527.1 ± 1 m/s; speed of sound (308.15 K, m1 = 0.0689): 1528.6 ± 1 m/s; speed of sound (308.15 K, m1 = 0.076): 1529.5 ± 1 m/s; speed of sound (308.15 K, m1 = 0.0804): 1530 ± 1 m/s; speed of sound (308.15 K, m1 = 0.0938): 1531.7 ± 1 m/s; speed of sound (308.15 K, m1 = 0.1119): 1533.8 ± 1 m/s; speed of sound (308.15 K, m1 = 0.1194): 1534.8 ± 1 m/s; speed of sound (308.15 K, m1 = 0.1306): 1536.1 ± 1 m/s; speed of sound (308.15 K, m1 = 0.1402): 1537.3 ± 1 m/s; speed of sound (308.15 K, m1 = 0.1601): 1539.7 ± 1 m/s; speed of sound (308.15 K, m1 = 0.1715): 1541.1 ± 1 m/s; mass density (308.15 K, m1 = 0.0292): 995.314 ± 0.11 kg/m3; mass density (308.15 K, m1 = 0.0328): 995.471 ± 0.11 kg/m3; mass density (308.15 K, m1 = 0.043): 995.914 ± 0.1 kg/m3; mass density (308.15 K, m1 = 0.0551): 996.435 ± 0.1 kg/m3; mass density (308.15 K, m1 = 0.0689): 997.048 ± 0.1 kg/m3; mass density (308.15 K, m1 = 0.076): 997.346 ± 0.1 kg/m3; mass density (308.15 K, m1 = 0.0804): 997.55 ± 0.1 kg/m3; mass density (308.15 K, m1 = 0.0938): 998.14 ± 0.1 kg/m3; mass density (308.15 K, m1 = 0.1119): 998.919 ± 0.1 kg/m3; mass density (308.15 K, m1 = 0.1194): 999.225 ± 0.1 kg/m3; mass density (308.15 K, m1 = 0.1306): 999.706 ± 0.1 kg/m3; mass density (308.15 K, m1 = 0.1402): 1000.12 ± 0.1 kg/m3; mass density (308.15 K, m1 = 0.1601): 1000.98 ± 0.1 kg/m3; mass density (308.15 K, m1 = 0.1715): 1001.46 ± 0.1 kg/m3; speed of sound (318.15 K, m1 = 0.0292): 1538.9 ± 1 m/s; speed of sound (318.15 K, m1 = 0.0328): 1539.2 ± 1 m/s; speed of sound (318.15 K, m1 = 0.043): 1540.3 ± 1 m/s; speed of sound (318.15 K, m1 = 0.0551): 1541.3 ± 1 m/s; speed of sound (318.15 K, m1 = 0.0689): 1542.7 ± 1 m/s; speed of sound (318.15 K, m1 = 0.076): 1543.3 ± 1 m/s; speed of sound (318.15 K, m1 = 0.0804): 1543.7 ± 1 m/s; speed of sound (318.15 K, m1 = 0.0938): 1544.9 ± 1 m/s; speed of sound (318.15 K, m1 = 0.1119): 1546.4 ± 1 m/s; speed of sound (318.15 K, m1 = 0.1194): 1547.1 ± 1 m/s; speed of sound (318.15 K, m1 = 0.1306): 1548 ± 1 m/s; speed of sound (318.15 K, m1 = 0.1402): 1548.9 ± 1 m/s; speed of sound (318.15 K, m1 = 0.1601): 1550.6 ± 1 m/s; speed of sound (318.15 K, m1 = 0.1715): 1551.6 ± 1 m/s; mass density (318.15 K, m1 = 0.0292): 991.46 ± 0.11 kg/m3; mass density (318.15 K, m1 = 0.0328): 991.615 ± 0.11 kg/m3; mass density (318.15 K, m1 = 0.043): 992.05 ± 0.11 kg/m3; mass density (318.15 K, m1 = 0.0551): 992.563 ± 0.11 kg/m3; mass density (318.15 K, m1 = 0.0689): 993.168 ± 0.11 kg/m3; mass density (318.15 K, m1 = 0.076): 993.461 ± 0.11 kg/m3; mass density (318.15 K, m1 = 0.0804): 993.641 ± 0.11 kg/m3; mass density (318.15 K, m1 = 0.0938): 994.212 ± 0.11 kg/m3; mass density (318.15 K, m1 = 0.1119): 994.982 ± 0.11 kg/m3; mass density (318.15 K, m1 = 0.1194): 995.305 ± 0.11 kg/m3; mass density (318.15 K, m1 = 0.1306): 995.779 ± 0.11 kg/m3; mass density (318.15 K, m1 = 0.1402): 996.189 ± 0.11 kg/m3; mass density (318.15 K, m1 = 0.1601): 997.035 ± 0.11 kg/m3; mass density (318.15 K, m1 = 0.1715): 997.488 ± 0.1 kg/m3
